Converted amounts (≈) assume the structure as drawn.
Test: Solubility of omeprazole and omeprazole sodium in water, dichloromethane and polyethylene glycol 400
Assay type: physicochemical
Protocol: The solubility of omeprazole (the non-ionised species) has been determined to approximately 0.1 g/l in water and approximately 100 g/l in dichloromethane at room temperature (22° C.). […] Omeprazole sodium is ionised and is therefore much more soluble in water compared with omeprazole and the opposite is applicable in the less polar solvent dichloromethane. The solubility of omeprazole (the non-ionised species) has been determined to approximately 20 g/l in polyethylene glycol 400. This means that the solubility is much better in polyethylene glycol, a less polar solvent, than in water. […] This means that the solubility in polyethylene glycol is much higher for omeprazole sodium than for omeprazole. The high solubility of omeprazole sodium in polyethylene glycol is very favourable regarding the formulation aspects of a parenteral pharmaceutical product.

| Solubility in dichloromethane (result in words) | Solubility in polyethylene glycol 400 (result in words) | Solubility in water (result in words) | solubility (22 °C, organic solvent or mixture) [mg/mL] | solubility (22 °C, water) [mg/mL] | solubility (organic solvent or mixture) [mg/mL] | Structure (SMILES) |
| --- | --- | --- | --- | --- | --- | --- |
| only slightly soluble | freely soluble | freely soluble |  |  |  | COc1ccc2[n-]c([S+]([O-])Cc3ncc(C)c(OC)c3C)nc2c1.[Na+] (stereo not drawn) [Omeprazole sodium] |
|  |  |  | ~100 (≈ 289 mM) | ~0.1 (≈ 0.289 mM) | ~20 (≈ 57.9 mM) | COc1ccc2[nH]c([S+]([O-])Cc3ncc(C)c(OC)c3C)nc2c1 (stereo not drawn) [omeprazole] |
